pIC50: −log10 of the molar value. Values after ≈ are worked out from the molar mass of the structure shown. Read-outs that look alike come from different tables or passages of the source.
How the values were obtained:
M. phlei DSM 750 = experiment: MIC determination (broth microdilution); format: cell-based, Mycobacterium phlei; settings: Mycolicibacterium phlei, DSM750; M. phlei DSM 750; read-out: MIC
Procedure: (§1) 1.1.1 In vitro experiments
(§2) Determination of Minimal inhibitory concentrations (MIC)
(§3) Approved Standard M07-A9.1
(§4) CFU mL-1. […] Albicidin and […]
(§5) and serially diluted in DMSO (100%). […]
(§6) in 0.1 N HCL, respectively.
(§7) One row of each well plate served as a […]
(§8) sterility control (only MHB II-media). […]
(§9) adding 5 µL DMSO to several wells. […]
(§10) for growth inhibition by naked eye.

S. Typhimurium TA100 = experiment: MIC determination (broth microdilution); format: cell-based, Salmonella typhimurium; settings: Salmonella enterica; S. Typhimurium TA100; read-out: MIC
Procedure: as §1, §2, §3, §4, §5, §6, §7, §8, §9, §10
(§11) Microorganisms and Cell Cultures (DSMZ): […]

M. luteus DSM1790 = experiment: MIC determination (broth microdilution); format: cell-based, Micrococcus luteus; settings: M. luteus DSM1790
Procedure: as §1, §2, §3, §4, §5, §6, §7, §8, §9, §10, §11

E. coli DNA gyrase = target: T1, E. coli DNA gyrase (Escherichia coli, UniProt P0AES4+P0AES6); experiment: E. coli gyrase supercoiling inhibition assay; format: biochemical; set-up: key: ↑: for stronger inhibition; ≈: for equal inhibition; ↓: for diminished inhibition compared to albicidin 1; settings: constant concentration of 45 nM, compared to albicidin 1
T1 construct: purchased inspiralis Limited, Norwich, UK
Procedure: Escherichia coli Gyrase Supercoiling Inhibition Assay
loaded on an agarose gel.
2-15. […] Addition of DNA
All derivatives were tested at a concentration of […]

B. subtilis DSM 10 = experiment: MIC determination (broth microdilution); format: cell-based; settings: Bacillus subtilis, DSM10; B. subtilis DSM 10; read-out: MIC
Procedure: as §1, §2, §3, §4, §5, §6, §7, §8, §9, §10, §11

E. coli BW25113 = experiment: MIC determination (broth microdilution); format: cell-based; settings: Escherichia coli
Procedure: as §1, §2, §3, §4, §5, §6, §7, §8, §9, §10, §11

[1] = tested on: E. coli DSM 1116 + 50% Human Serum; experiment: MIC determination in presence of 50% human serum; format: cell-based; settings: Escherichia coli, DSM1116; E. coli DSM 1116 + 50% Human Serum; read-out: MIC
Description: This investigation was completed by assessment of the antibacterial activity in presence of human plasma (50%) (Table 1), since high plasma protein binding can severely impair antibacterial activity and thus efficacy.
as §1, §2, §3, §4, §5, §6, §7, §8, §9, §10, §11

E. coli DSM 1116 = experiment: MIC determination (broth microdilution); format: cell-based, Escherichia coli; settings: Escherichia coli, DSM1116
Procedure: as §1, §2, §3, §4, §5, §6, §7, §8, §9, §10, §11

DNA gyrase = settings: read-out: half maximum inhibitory concentration (IC50); cited from earlier work
Gram-positive strains = experiment: MIC, primary panel; format: cell-based
Procedure: as §1, §2, §3, §4, §5, §6, §7, §8, §9, §10
(§12) Microorganisms and Cell Cultures (DSMZ):
Mycobacterium phlei DSM 750 […]
Dr. Werner (Robert-Koch-Institut, Wernigerode, Germany): […]

Gram-negative strains = experiment: MIC, primary panel; format: cell-based; settings: Salmonella enterica, TYPHIMURIUM
Procedure: as §1, §2, §3, §4, §5, §6, §7, §8, §9, §10, §12
Mycobacterium phlei DSM 750
Salmonella typhimurium TA100 was kindly provided by Prof. Dr. Vera Meyer (Technische Universität […]
Brötz-Oesterheldt (Tübingen, Germany)/ Prof. Dr. Heisig (Hamburg, Germany)2 Escherichia coli WT (GK571)
Escherichia coli WT-3-1 (GK796) [gyrA (S83L, D87G)]
Escherichia coli MI (GK572) [gyrA (S83L)] […]
or by Prof. Dr. Werner (Robert-Koch-Institut, Wernigerode, Germany): […]

[2] = Cell proliferation assay (HepG2 cells); settings: human
Procedure: (§13) Cell proliferation assay (HepG2 cells)
(§14) The assay was performed by the company Eurofins (Taiwan). Cytotoxicity was representatively
(§15) according to a protocol by Ansar et al.27 This is in line with previously published cytotoxicity data on
(§16) GI = growth inhibition; TGI = total growth inhibition; LC = lethal concentration

HepG2 cells = experiment: Cell proliferation assay (HepG2 cells); settings: HepG2 cells
Procedure: as §13, §14, §15, §16

[3] = Micrococcus luteus, read-out: MIC
[4] = E. coli DSM 1116, read-out: MIC

Compound | MIC (M. phlei DSM 750) [µg/mL] | MIC (S. Typhimurium TA100) [µg/mL] | MIC (M. luteus DSM1790; [3]) [µg/mL] | E. coli gyrase inhibition (E. coli DNA gyrase) | MIC (B. subtilis DSM 10) [µg/mL] | MIC (E. coli BW25113) [µg/mL] | MIC [1] [µg/mL] | MIC (E. coli DSM 1116; [4]) [µg/mL] | pIC50 (DNA gyrase) | MIC (Gram-positive strains) [µg/mL] | MIC (Gram-negative strains) [µg/mL] | MIC (E. coli DSM 1116) [µg/mL] | CC50 [2] [nM] | GI50 [2] [nM] | TGI (total growth inhibition) (HepG2 cells) [nM] | MIC (M. luteus DSM1790) [µg/mL]
COc1c(NC(=O)c2ccc(NC(=O)c3ccc(NC(=O)[C@H](Cc4c[nH]nn4)NC(=O)c4ccc(NC(=O)/C(C)=C/c5ccccn5)cc4)cc3)c(OC)c2O)ccc(C(=O)O)c1O [Compound 3] | 64 (≈ 73.6 µM) | 0.125 (≈ 0.144 µM) | 32 (≈ 36.8 µM) | ↓ | 4 (≈ 4.6 µM) | 0.5 (≈ 0.575 µM) | 8 | 0.25 (≈ 0.287 µM) |  |  |  |  |  |  |  | 
COc1c(NC(=O)c2ccc(NC(=O)[C@H](Cc3c[nH]nn3)NC(=O)c3ccc(NC(=O)/C(C)=C/c4ccc(O)cc4)cc3)cc2)ccc(C(=O)Nc2ccccc2)c1O [Compound 15] | 2 (≈ 2.52 µM) | 1 (≈ 1.26 µM) | 1 (≈ 1.26 µM) | ≈ | 2 (≈ 2.52 µM) | 0.5 (≈ 0.629 µM) | ≥ 8 | 1 (≈ 1.26 µM) |  |  |  |  |  |  |  | 
cystobactamid |  |  |  |  |  |  |  |  | 7.10 |  |  |  |  |  |  | 
COc1c(NC(=O)c2ccc(NC(=O)c3ccc(NC(=O)[C@H](Cc4c[nH]nn4)NC(=O)c4ccc(NC(=O)/C(C)=C/c5ccc(O)cc5)cc4)cc3)cn2)ccc(C(=O)O)c1O [Compound 9] | 1 (≈ 1.19 µM) | 0.031 (≈ 0.0369 µM) | 1 (≈ 1.19 µM) | ↓ | 1 (≈ 1.19 µM) | 0.031 (≈ 0.0369 µM) | ≥ 8 | 0.031 (≈ 0.0369 µM) |  |  |  |  |  |  |  | 
COc1c(NC(=O)c2ccc(NC(=O)[C@H](Cc3c[nH]nn3)NC(=O)c3ccc(NC(=O)/C(C)=C/c4ccc(O)cc4)cc3)cc2)ccc(C(=O)Nc2ccc(C(=O)O)cn2)c1O [Compound 13] | 4 (≈ 4.76 µM) | 0.016 (≈ 0.0191 µM) | 4 (≈ 4.76 µM) | ≈ | 4 (≈ 4.76 µM) | 0.125 (≈ 0.149 µM) | 8 |  |  | 4 (≈ 4.76 µM) | 0.125 (≈ 0.149 µM) | 0.125 (≈ 0.149 µM) |  |  |  | 
COc1c(NC(=O)c2ccc(NC(=O)c3ccc(NC(=O)[C@H](Cc4c[nH]nn4)NC(=O)c4ccc(NC(=O)/C(C)=C/c5ccc(O)cc5)cc4)cc3)cc2)ccc(C(=O)O)c1O [Compound 11, reference compound] | 4 (≈ 4.77 µM) | 0.063 (≈ 0.0751 µM) | 8 (≈ 9.54 µM) | ≈ | 4 (≈ 4.77 µM) | 0.031 (≈ 0.037 µM) | 4 | 0.063 (≈ 0.0751 µM) |  |  |  |  |  |  |  | 
COc1c(NC(=O)c2ccc(NC(=O)c3ccc(NC(=O)[C@H](Cc4c[nH]nn4)NC(=O)c4ccc(NC(=O)/C(C)=C/c5cccnc5)cc4)cc3)c(OC)c2O)ccc(C(=O)O)c1O [Compound 4] | 32 (≈ 36.8 µM) | 0.125 (≈ 0.144 µM) | 32 (≈ 36.8 µM) | ↓ | 2 (≈ 2.3 µM) | 0.5 (≈ 0.575 µM) | 8 |  |  |  |  | 0.125 (≈ 0.144 µM) |  |  |  | 
COc1c(NC(=O)c2ccc(NC(=O)c3ccc(NC(=O)[C@H](Cc4c[nH]nn4)NC(=O)c4ccc(NC(=O)/C(C)=C/c5ccc(O)cc5)nc4)cc3)c(OC)c2O)ccc(C(=O)O)c1O [Compound 6] | 4 (≈ 4.52 µM) | 0.016 (≈ 0.0181 µM) | 4 (≈ 4.52 µM) | ↓ | 0.5 (≈ 0.564 µM) | 0.063 (≈ 0.0711 µM) | 1 | 0.016 (≈ 0.0181 µM) |  |  |  |  |  |  |  | 
CN[C@@H]1C[C@H]2O[C@@](C)([C@@H]1OC)n1c3ccccc3c3c4c(c5c6ccccc6n2c5c31)C(=O)NC4 [Staurosporine, reference compound] |  |  |  |  |  |  |  |  |  |  |  |  | 5810 | 5.23 | < 140 | 
COc1c(NC(=O)c2ccc(NC(=O)c3ccc(NC(=O)[C@H](Cc4c[nH]nn4)NC(=O)c4ccc(NC(=O)/C(C)=C/c5ccc(O)cc5)cn4)cc3)c(OC)c2O)ccc(C(=O)O)c1O [Compound 5] | 4 (≈ 4.52 µM) | 0.031 (≈ 0.035 µM) | 0.5 (≈ 0.564 µM) | ↑ | 0.25 (≈ 0.282 µM) | 0.031 (≈ 0.035 µM) | 2 | 0.031 (≈ 0.035 µM) |  |  |  |  |  |  |  | 
COc1c(NC(=O)c2ccc(NC(=O)c3ccc(NC(=O)[C@H](Cc4c[nH]nn4)NC(=O)c4ccc(NC(=O)/C(C)=C/c5ccc(O)cc5)cc4)cc3)nc2)ccc(C(=O)O)c1O [Compound 10] | 2 (≈ 2.38 µM) | 0.016 (≈ 0.0191 µM) | 32 (≈ 38.1 µM) | ↓ | 2 (≈ 2.38 µM) | 0.063 (≈ 0.075 µM) | 2 | 0.063 (≈ 0.075 µM) |  |  |  |  |  |  |  | 32.0 (≈ 38.1 µM)
COc1c(NC(=O)c2ccc(NC(=O)[C@H](Cc3c[nH]nn3)NC(=O)c3ccc(NC(=O)/C(C)=C/c4ccc(O)cc4)cc3)cc2)ccc(C(=O)Nc2ccc(C(=O)O)nc2)c1O [Compound 12] | 32 (≈ 38.1 µM) | 0.125 (≈ 0.149 µM) | 32 (≈ 38.1 µM) | ↓ | ≥ 128 | ≥ 128 | ≥ 8 | 64 (≈ 76.2 µM) |  | > 32 | > 32 |  |  |  |  | 
COc1c(NC(=O)c2ccc(NC(=O)[C@H](Cc3c[nH]nn3)NC(=O)c3ccc(NC(=O)/C(C)=C/c4ccc(O)cc4)cc3)cc2)ccc(C(=O)Nc2ccc(C(=O)O)cc2)c1O [Compound 14, reference compound] | 1 (≈ 1.19 µM) | 0.016 (≈ 0.0191 µM) | 2 (≈ 2.38 µM) | ≈ | 0.5 (≈ 0.596 µM) | 0.125 (≈ 0.149 µM) | 8 | 0.25 (≈ 0.298 µM) |  |  |  |  |  |  |  | 

— paper PMC8580050, “Improvement of the antimicrobial potency, pharmacokinetic and pharmacodynamic properties of albicidin by incorporation of nitrogen atoms” (Chemical Science, 2021)
